“Also recorded” adds a separate entry of the source. Read-outs that look alike come from different tables or passages of the source.
Experiments:
[1] = test system: hybridoma cell lines; details: cited from earlier work
[2] = test system: recombinant GS-NS0 mouse myeloma cell line (Cell line A); type: cell-based
[3] = test system: recombinant GS-NS0 mouse myeloma cell line (Cell line A); type: cell-based; remark: listed apart in the source
[4] = test system: hybridoma cells; details: cited from earlier work
[5] = test system: cell line A; details: 1 mg/L FAC, serum free and protein free GSF medium
Description: Innoculum for these fermentations was provided by subculture of the cells in media the same as that used in the fermentations.

[6] = test system: recombinant GS-NS0 cell line (Cell line B)
Experimental: Cells resuspended in this medium were then used to inoculate experimental flasks at an inoculation density of 2×10^5 cells/ml.
All flasks were also supplemented with 1 ml/L of a 1000× concentrated cholesterol and fatty acid supplement (CLOC).
Flasks were subcultured by dilution with fresh medium back to 2×10^5 cells/ml at 5 day intervals. On the second subculture flasks were allowed to overgrow to saturation. Cell counts were performed using the trypan blue exclusion method. Antibody titre analysis was performed using analytical protein A hplc against a homologous standard.

[7] = test system: GS-NSO cell lines (Cell Lines C, D and E); details: protein free FAC medium, 4.5 L and 100 L
Experimental: Cell Line C was grown at both 4.5 and 100 L scale, Cell Line D at 4.5 L scale and Cell Line E at 100 L scale.

[8] = test system: NSO myeloma cell lines; details: FAC alone, 0.2 mg/L; cited from earlier work
[9] = test system: recombinant NS0 mouse myeloma cell line selected using a G418 selection system; details: 1 mg/L FAC vs 1 mg/L transferrin and 0.1 mg/L FAC
Description: After 5 days, flasks were subcultured and then allowed to follow the full growth cycle.

[10] = test system: mouse hybridoma cell line (9E10)
Experimental: A mouse hybridoma cell line (9E10), producing anti-Myc antibody, previously subcultured in modified CDSS supplemented with 1 mg/L human transferrin and 6 mM Glutamine was used to inoculate experimental flasks at an inoculation density of 1×10^5 cells/ml.
Flasks were subcultured by dilution with fresh medium back to 1×10^5 cells/ml at 3 day intervals. On the third subculture flasks were allowed to overgrow. Cell counts were performed using the trypan blue exclusion method.

O=C([O-])CC(O)(CC(=O)[O-])C(=O)[O-].[Fe+3] [FC, ferric citrate]
concentration required to support hybridoma cell growth with equivalence to transferrin [1]: 500 µM | antibody titre compared to the transferrin containing control [2]: at least as much, and in the case of 10 mg/L FC significantly more antibody | concentration giving growth equivalent to transferrin containing control (maximum viable cell number and area underneath the growth curve) [3]: ≥ 10 mg/L | concentration of FC relative to FAC required for cell growth equivalent to transferrin [3]: 10 × | proliferation over subcultures [3]: unable to proliferate beyond the first subculture; also recorded: unable to proliferate beyond the second subculture

O=c1cccccc1O [tropolone, reference compound]
optimum concentration ([4]; tropolone used with FAC): 5 µM

ferric ammonium citrate [FAC]
support of hybridoma growth ([1]; 10 mg/L, static culture, WO 94/02592): able to support hybridoma growth in static culture | growth and antibody production [5]: able to support good growth and antibody production in both media | support of hybridoma growth ([4]; 10 mg/L, agitated suspension culture, WO 94/02592): this was not the case in agitated suspension culture | support of hybridoma growth ([4]; FAC alone, between 0.1 and 10 mg/L, no transferrin or tropolone): incapable of supporting the growth of hybridoma cells | optimum concentration ([4]; FAC used with tropolone): 0.2 mg/L | concentration supporting growth equivalent to positive control culture ([6]; control 5 μM tropolone and 0.4 mg/L FAC, GSF medium): ≥ 0.8 mg/L | concentration supporting antibody production at least equivalent to control ([6]; overgrow cultures, protein A hplc): ≥ 0.8 mg/L | growth and antibody productivity [7]: supports good growth of, and antibody productivity in, a wide range of cell lines | support of NSO myeloma growth [8]: could not support the growth of the NSO myeloma cell lines | growth vs transferrin containing medium [9]: Equivalent growth | more antibody produced at 0.4 mg/L than at 100 mg/L ([2]; culture with 0.4 mg/L vs culture with 100 mg/L): over 30% | antibody titre compared to the transferrin containing control ([2]; overgrow cultures, sandwich ELISA): at least as much, and in the majority of the cases significantly more antibody | proliferation over subcultures ([10]; 0.2 mg/L): unable to proliferate beyond the first subculture | proliferation over subcultures ([10]; 0.4 mg/L): unable to proliferate beyond the first subculture | proliferation over subcultures ([10]; 1 mg/L): unable to proliferate beyond the second subculture | proliferation over subcultures ([10]; 2 mg/L): unable to proliferate beyond the second subculture | proliferation over subcultures ([10]; 10 mg/L): unable to proliferate beyond the second subculture | FAC concentration required by hybridoma cell lines relative to GS-NS0 cells for continuous cell growth ([10]; agitated suspension culture): > 100 × | concentration required to support growth ([10]; hybridoma 9E10, agitated suspension): ≥ 50 mg/L | concentration required for growth equivalent to transferrin containing control, maximum viable cell number ([10]; overgrow cultures): 100 mg/L | concentration giving growth equivalent to transferrin containing control, cumulative cell hours (CCH) ([10]; overgrow cultures, integral of area underneath growth curve): 50 mg/L | proliferation over subcultures ([3]; 0.2 mg/L): able to proliferate after the first division, but was then unable to grow further | concentration able to support continuous cell growth ([3]; duplicate of the experiment (FIG. 1c)): 0.2 mg/L | concentration able to support continuous cell growth over several subcultures and during the overgrow culture ([3]; modified CDSS, no transferrin, agitated suspension, three subcultures at 3 day intervals): ≥ 0.4 mg/L | concentration giving growth equivalent to transferrin containing control (maximum viable cell number and area underneath the growth curve) ([3]; overgrow cultures): ≥ 1 mg/L

Reference: US8361797B2, “Myeloma cell culture in transferrin-free low iron medium” (Medimmune Limited, priority 2003, dated 2013)
